In ChEMBL document CHEMBL4414672, “Synthesis of certain benzothieno[3,2-d]pyrimidine derivatives as a selective SIRT2 inhibitors” (Eur J Med Chem, 2020):

Assays:
Format in all cases: functional
[1] = tested on: CCRF-CEM; assay: Growth inhibition of human CCRF-CEM cells at 10^-5 M incubated for 48 hrs by sulforhodamine B assay; settings: read-out: GI
[2] = tested on: K562; assay: Growth inhibition of human K562 cells at 10^-5 M incubated for 48 hrs by sulforhodamine B assay; settings: K562, 48 h, read-out: GI
[3] = tested on: A549; assay: Growth inhibition of human A549/ATCC cells at 10^-5 M incubated for 48 hrs by sulforhodamine B assay; settings: A549, 48 h, read-out: GI
[4] = tested on: EKVX; assay: Growth inhibition of human EKVX cells at 10^-5 M incubated for 48 hrs by sulforhodamine B assay; settings: read-out: GI
[5] = tested on: HOP-92; assay: Growth inhibition of human HOP92 cells at 10^-5 M incubated for 48 hrs by sulforhodamine B assay; settings: HOP-92, 48 h, read-out: GI
[6] = tested on: NCI-H23; assay: Growth inhibition of human NCI-H23 cells at 10^-5 M incubated for 48 hrs by sulforhodamine B assay; settings: NCI-H23, 48 h, read-out: GI
[7] = tested on: NCI-H322M; assay: Growth inhibition of human NCI-H322M cells at 10^-5 M incubated for 48 hrs by sulforhodamine B assay; settings: read-out: GI
[8] = tested on: NCI-H460; assay: Growth inhibition of human NCI-H460 cells at 10^-5 M incubated for 48 hrs by sulforhodamine B assay; settings: NCI-H460, 48 h, read-out: GI
[9] = tested on: NCI-H522; assay: Growth inhibition of human NCI-H522 cells at 10^-5 M incubated for 48 hrs by sulforhodamine B assay; settings: NCI-H522, 48 h, read-out: GI
[10] = tested on: COLO 205; assay: Growth inhibition of human COLO205 cells at 10^-5 M incubated for 48 hrs by sulforhodamine B assay; settings: COLO 205, 48 h, read-out: GI
[11] = tested on: HCT-116; assay: Growth inhibition of human HCT116 cells at 10^-5 M incubated for 48 hrs by sulforhodamine B assay; settings: HCT-116, 48 h, read-out: GI
[12] = tested on: HCT-15; assay: Growth inhibition of human HCT15 cells at 10^-5 M incubated for 48 hrs by sulforhodamine B assay; settings: HCT-15, 48 h, read-out: GI
[13] = tested on: KM12; assay: Growth inhibition of human KM12 cells at 10^-5 M incubated for 48 hrs by sulforhodamine B assay; settings: KM12, 48 h, read-out: GI
[14] = tested on: SW-620; assay: Growth inhibition of human SW620 cells at 10^-5 M incubated for 48 hrs by sulforhodamine B assay; settings: SW-620, 48 h, read-out: GI
[15] = tested on: SF-268; assay: Growth inhibition of human SF268 cells at 10^-5 M incubated for 48 hrs by sulforhodamine B assay; settings: SF-268, 48 h, read-out: GI
[16] = tested on: SF-295; assay: Growth inhibition of human SF295 cells at 10^-5 M incubated for 48 hrs by sulforhodamine B assay; settings: SF-295, 48 h, read-out: GI
[17] = tested on: SF-539; assay: Growth inhibition of human SF539 cells at 10^-5 M incubated for 48 hrs by sulforhodamine B assay; settings: SF-539, 48 h, read-out: GI
[18] = tested on: SNB-19; assay: Growth inhibition of human SNB19 cells at 10^-5 M incubated for 48 hrs by sulforhodamine B assay; settings: SNB-19, 48 h, read-out: GI
[19] = tested on: SNB-75; assay: Growth inhibition of human SNB75 cells at 10^-5 M incubated for 48 hrs by sulforhodamine B assay; settings: SNB-75, 48 h, read-out: GI
[20] = tested on: U-251; assay: Growth inhibition of human U251 cells at 10^-5 M incubated for 48 hrs by sulforhodamine B assay; settings: U-251, 48 h, read-out: GI
[21] = tested on: LOX IMVI; assay: Growth inhibition of human LOXIMVI cells at 10^-5 M incubated for 48 hrs by sulforhodamine B assay; settings: read-out: GI
[22] = tested on: Malme-3M; assay: Growth inhibition of human MALME-3M cells at 10^-5 M incubated for 48 hrs by sulforhodamine B assay; settings: read-out: GI
[23] = tested on: M14; assay: Growth inhibition of human M14 cells at 10^-5 M incubated for 48 hrs by sulforhodamine B assay; settings: M14, 48 h, read-out: GI
[24] = tested on: MDA-MB-435; assay: Growth inhibition of human MDA-MB-435 cells at 10^-5 M incubated for 48 hrs by sulforhodamine B assay; settings: MDA-MB-435, 48 h, read-out: GI
[25] = tested on: SK-MEL-2; assay: Growth inhibition of human SK-MEL-2 cells at 10^-5 M incubated for 48 hrs by sulforhodamine B assay; settings: SK-MEL-2, 48 h, read-out: GI
[26] = tested on: SK-MEL-5; assay: Growth inhibition of human SK-MEL-5 cells at 10^-5 M incubated for 48 hrs by sulforhodamine B assay; settings: SK-MEL-5, 48 h, read-out: GI
[27] = tested on: IGROV-1; assay: Growth inhibition of human IGROV1 cells at 10^-5 M incubated for 48 hrs by sulforhodamine B assay; settings: IGROV-1, 48 h, read-out: GI
[28] = tested on: OVCAR-3; assay: Growth inhibition of human OVCAR3 cells at 10^-5 M incubated for 48 hrs by sulforhodamine B assay; settings: OVCAR-3, 48 h, read-out: GI
[29] = tested on: OVCAR-4; assay: Growth inhibition of human OVCAR4 cells at 10^-5 M incubated for 48 hrs by sulforhodamine B assay; settings: OVCAR-4, 48 h, read-out: GI
[30] = tested on: OVCAR-8; assay: Growth inhibition of human OVCAR8 cells at 10^-5 M incubated for 48 hrs by sulforhodamine B assay; settings: OVCAR-8, 48 h, read-out: GI
[31] = tested on: NCI/ADR-RES; assay: Growth inhibition of human NCI/ADR-RES cells at 10^-5 M incubated for 48 hrs by sulforhodamine B assay; settings: read-out: GI
[32] = tested on: SK-OV-3; assay: Growth inhibition of human SKOV3 cells at 10^-5 M incubated for 48 hrs by sulforhodamine B assay; settings: SK-OV-3, 48 h, read-out: GI
[33] = tested on: A498; assay: Growth inhibition of human A498 cells at 10^-5 M incubated for 48 hrs by sulforhodamine B assay; settings: A498, 48 h, read-out: GI
[34] = tested on: ACHN; assay: Growth inhibition of human ACHN cells at 10^-5 M incubated for 48 hrs by sulforhodamine B assay; settings: read-out: GI
[35] = tested on: SN12C; assay: Growth inhibition of human SN12C cells at 10^-5 M incubated for 48 hrs by sulforhodamine B assay; settings: read-out: GI
[36] = tested on: TK-10; assay: Growth inhibition of human TK10 cells at 10^-5 M incubated for 48 hrs by sulforhodamine B assay; settings: TK-10, 48 h, read-out: GI
[37] = tested on: PC-3; assay: Growth inhibition of human PC3 cells at 10^-5 M incubated for 48 hrs by sulforhodamine B assay; settings: PC-3, 48 h, read-out: GI
[38] = tested on: Hs-578T; assay: Growth inhibition of human Hs 578T cells at 10^-5 M incubated for 48 hrs by sulforhodamine B assay; settings: read-out: GI
[39] = tested on: T47D; assay: Growth inhibition of human T47D cells at 10^-5 M incubated for 48 hrs by sulforhodamine B assay; settings: read-out: GI

Compound	inhibition of growth at 10 µM [1]	inhibition of growth at 10 µM [2]	inhibition of growth at 10 µM [3]	inhibition of growth at 10 µM [4]	inhibition of growth at 10 µM [5]	inhibition of growth at 10 µM [6]	inhibition of growth at 10 µM [7]	inhibition of growth at 10 µM [8]	inhibition of growth at 10 µM [9]	inhibition of growth at 10 µM [10]	inhibition of growth at 10 µM [11]	inhibition of growth at 10 µM [12]	inhibition of growth at 10 µM [13]	inhibition of growth at 10 µM [14]	inhibition of growth at 10 µM [15]	inhibition of growth at 10 µM [16]	inhibition of growth at 10 µM [17]	inhibition of growth at 10 µM [18]	inhibition of growth at 10 µM [19]	inhibition of growth at 10 µM [20]	also measured
N=C1Nc2c(sc3ccc(Cl)cc23)C(c2ccc3ccccc3c2)N1 (stereo not drawn)	-3.9%	6.06%	7.42%	1.13%	8.76%	5.66%	6.59%	13.2%	-6.52%	-6.53%	10.6%	3.37%	3.41%	0.99%	-5.53%	-3.49%	-2.62%	18.1%	0.66%	-0.54%	inhibition of growth at 10 µM [21]: 6.47%; inhibition of growth at 10 µM [22]: 1.8%; inhibition of growth at 10 µM [23]: -0.34%; inhibition of growth at 10 µM [24]: -4.57%; inhibition of growth at 10 µM [25]: -16.2%; inhibition of growth at 10 µM [26]: -0.53%; inhibition of growth at 10 µM [27]: -4.93%; inhibition of growth at 10 µM [28]: 8.92%; inhibition of growth at 10 µM [29]: 6.63%; inhibition of growth at 10 µM [30]: -3.15%; inhibition of growth at 10 µM [31]: 1.25%; inhibition of growth at 10 µM [32]: -0.13%; inhibition of growth at 10 µM [33]: 6.65%; inhibition of growth at 10 µM [34]: 25.9%; inhibition of growth at 10 µM [35]: -25.1%; inhibition of growth at 10 µM [36]: 30.2%; inhibition of growth at 10 µM [37]: -10%; inhibition of growth at 10 µM [38]: 14.6%; inhibition of growth at 10 µM [39]: -15.3%
O=[N+]([O-])c1cccc(C2c3sc4ccc(Cl)cc4c3N=C3NN=NN32)c1 (stereo not drawn)	-11.4%	-7.43%	9.64%	8.75%	12.8%	1.39%	-3.77%	6.19%	-7.9%	-7.9%	-7.64%	-16%	-1.99%	-1.74%	-8.1%	3.68%	-8.51%	7.13%	-9.67%	3.96%	inhibition of growth at 10 µM [21]: -0.19%; inhibition of growth at 10 µM [22]: -4.76%; inhibition of growth at 10 µM [23]: -10.9%; inhibition of growth at 10 µM [24]: 2.65%; inhibition of growth at 10 µM [25]: -23%; inhibition of growth at 10 µM [26]: -10.9%; inhibition of growth at 10 µM [27]: -11.1%; inhibition of growth at 10 µM [28]: -0.5%; inhibition of growth at 10 µM [29]: -6.3%; inhibition of growth at 10 µM [30]: -4.72%; inhibition of growth at 10 µM [31]: 3.11%; inhibition of growth at 10 µM [32]: 6.39%; inhibition of growth at 10 µM [33]: 18.1%; inhibition of growth at 10 µM [34]: -27.8%; inhibition of growth at 10 µM [35]: 9.98%; inhibition of growth at 10 µM [36]: 35.8%; inhibition of growth at 10 µM [37]: -11.3%; inhibition of growth at 10 µM [38]: -11.2%; inhibition of growth at 10 µM [39]: -8.85%
